US4060530A, “Clavulanic acid amides” (Beecham Group Limited, priority 1975, dated 1977)
Where a name gives a salt, the structure may show the parent alone.

How the values were obtained:
[1] = system: Staph. aureus Russell; test: MIC, method of Example 30 with 1/100 dilution of overnight broth (Example 46); conditions: Staphylococcus aureus
Experimental: (§1) The cultures were incubated overnight and the points of bacterial growth recorded next morning by observing the turbidity of the culture.

[2] = system: Staphylococcus aureus (Russell); test: MIC / synergism, microtitre method (Example 42); format: cell-based; conditions: Staphylococcus aureus; agent alone (Tables 5, 6); inoculum final dilution 0.5 ×10^-2, 37° C overnight; read-out: Minimum Inhibitory Concentration
[3] = system: Proteus mirabilis 899; test: microbe, parasite or virus in culture; format: cell-based; conditions: Proteus mirabilis, 899, read-out: Minimum Inhibitory Concentration
[4] = system: Providentia stuartii; test: MIC, microtitre method (Example 30); conditions: read-out: Minimum Inhibitory Concentration
Experimental: as §1

[5] = system: Pseudomonas aeruginosa A; test: MIC, microtitre method (Example 30); conditions: read-out: Minimum Inhibitory Concentration
Experimental: as §1

[6] = system: Staph. aureus Oxford; test: MIC, method of Example 30 with 1/100 dilution of overnight broth (Example 46); conditions: Staphylococcus aureus
Experimental: as §1

[7] = system: Klebsiella sp 62; test: MIC / synergism, microtitre method (Example 42); format: cell-based; conditions: agent alone, inoculum final dilution 0.5 ×10^-2, 37° C overnight, read-out: Minimum Inhibitory Concentration
[8] = system: Enterobacter cloacae; test: MIC / synergism, microtitre method (Example 42); format: cell-based; conditions: agent alone, inoculum final dilution 0.5 ×10^-2, 37° C overnight, read-out: Minimum Inhibitory Concentration
[9] = system: Enterobacter aerogenes T 624; test: MIC, microtitre method (Example 30); conditions: Klebsiella aerogenes, T624, read-out: Minimum Inhibitory Concentration
Experimental: as §1

[10] = system: Staphylococcus aureus (Oxford H); test: MIC, microtitre method (Example 30); conditions: read-out: Minimum Inhibitory Concentration
Experimental: as §1

[11] = system: Escherichia coli NCTC 10481; test: MIC / synergism, microtitre method (Example 42); format: cell-based; conditions: NCTC10481, agent alone, inoculum final dilution 0.5 ×10^-2, 37° C overnight, read-out: Minimum Inhibitory Concentration
[12] = system: Shigella sonnei; test: MIC, microtitre method (Example 30); conditions: read-out: Minimum Inhibitory Concentration
Experimental: as §1

[13] = system: Streptococcus pyogenes CN 10; test: MIC, microtitre method (Example 30); conditions: CN10, read-out: Minimum Inhibitory Concentration
Experimental: as §1

[14] = system: Escherichia coli NCTC 10418; test: MIC, microtitre method (Example 30); conditions: NCTC10418, read-out: Minimum Inhibitory Concentration
Experimental: as §1

[15] = system: Klebsiella aerogenes; test: MIC, microtitre method (Example 30); conditions: read-out: Minimum Inhibitory Concentration
Experimental: as §1

[16] = system: Proteus vulgaris W090; test: MIC, microtitre method (Example 30); conditions: W090, read-out: Minimum Inhibitory Concentration
Experimental: as §1

[17] = system: Serratia marcescens; test: MIC / synergism, microtitre method (Example 42); format: cell-based; conditions: agent alone, inoculum final dilution 0.5 ×10^-2, 37° C overnight, read-out: Minimum Inhibitory Concentration
[18] = system: Serratia marcescens; test: MIC, microtitre method (Example 30); conditions: read-out: Minimum Inhibitory Concentration
Experimental: as §1

[19] = system: Salmonella typhimurium; test: MIC, microtitre method (Example 30); conditions: Salmonella enterica, read-out: Minimum Inhibitory Concentration
Experimental: as §1

[20] = system: Klebsiella oxytocum; test: MIC, microtitre method (Example 30); conditions: read-out: Minimum Inhibitory Concentration
Experimental: as §1

[21] = system: Staphylococcus aureus (Russell); test: MIC, microtitre method (Example 30); conditions: read-out: Minimum Inhibitory Concentration
Experimental: as §1

[22] = Blood and tissue levels of clavulanic acid in female mice; format: in vivo
[23] = system: Proteus mirabilis C977; test: MIC, microtitre method (Example 30); conditions: C977, read-out: Minimum Inhibitory Concentration
Experimental: as §1

[24] = system: Acinetobacter anitratus; test: MIC, microtitre method (Example 30); conditions: Acinetobacter calcoaceticus, read-out: Minimum Inhibitory Concentration
Experimental: as §1

[25] = system: Escherichia coli B 11; test: MIC / synergism, microtitre method (Example 42); format: cell-based; conditions: B11, agent alone, inoculum final dilution 0.5 ×10^-2, 37° C overnight, read-out: Minimum Inhibitory Concentration
[26] = system: Escherchia coli 10418; test: MIC, method of Example 30 with 1/100 dilution of overnight broth (Example 46)
Experimental: as §1

[27] = system: Bacillus subtilis A; test: as above; conditions: Bacillus subtilis
Experimental: as §1

[28] = system: Staphylococcus aureus; test: MIC / synergism, microtitre method (Example 42); format: cell-based; conditions: Staphylococcus aureus; agent alone (Tables 5, 6); inoculum final dilution 0.5 ×10^-2, 37° C overnight; read-out: Minimum Inhibitory Concentration
[29] = system: Streptococcus faecalis; test: MIC, microtitre method (Example 30); conditions: Enterococcus faecalis, read-out: Minimum Inhibitory Concentration
Experimental: as §1

[30] = system: Enterobacter cloacae; test: MIC, microtitre method (Example 30); conditions: read-out: Minimum Inhibitory Concentration
Experimental: as §1

[31] = system: Bacillus subtilis; test: MIC, microtitre method (Example 30); conditions: read-out: Minimum Inhibitory Concentration
Experimental: as §1

**Q.** For `O=C(O)[C@H]1/C(=C/CO)O[C@@H]2CC(=O)N21` [clavulanic acid sodium salt, 3-(β-hydroxyethylidine)-7-oxo-4-oxa-1-azabicyclo [3,2,0]heptane-2-carboxylic acid sodium salt], which MIC [1] is on record?
**A.** 15 µg/mL

**Q.** What about the MIC [2] of the same compound?
**A.** 15 µg/mL

**Q.** What about the MIC [3] of the same compound?
**A.** > 500 µg/mL

**Q.** And the MIC [4]?
**A.** 125 µg/mL

**Q.** And the MIC [5]?
**A.** 500 µg/mL

**Q.** What about the MIC [6] of the same compound?
**A.** 15 µg/mL

**Q.** And the MIC [7]?
**A.** 31 µg/mL

**Q.** What about the MIC [8] of the same compound?
**A.** 62 µg/mL

**Q.** And the MIC [9]?
**A.** 31 µg/mL

**Q.** What about the MIC [10] of the same compound?
**A.** 7.5 µg/mL

**Q.** What about the MIC [11] of the same compound?
**A.** 31 µg/mL

**Q.** What about the MIC [12] of the same compound?
**A.** 62 µg/mL

**Q.** What about the MIC [13] of the same compound?
**A.** 125 µg/mL

**Q.** What about the MIC [14] of the same compound?
**A.** 31 µg/mL

**Q.** What about the MIC [15] of the same compound?
**A.** 31 to 62 µg/mL

**Q.** What about the MIC [16] of the same compound?
**A.** 31 µg/mL

**Q.** What about the MIC [17] of the same compound?
**A.** 125 µg/mL

**Q.** What about the MIC [18] of the same compound?
**A.** 125 µg/mL

**Q.** What about the MIC [19] of the same compound?
**A.** 31 µg/mL

**Q.** What about the MIC [20] of the same compound?
**A.** 62 µg/mL

**Q.** And the MIC [21]?
**A.** 7.5 µg/mL

**Q.** And the “levels of clavulanic acid after oral administration” value ([22]; oral administration of 100 mg/kg)?
**A.** useful levels of clavulanic acid can be obtained

**Q.** What about the “blood and tissue levels of clavulanic acid” value ([22]; subcutaneous administration of 100 mg/kg) of the same compound?
**A.** > 5 µg/mL

**Q.** And the MIC [23]?
**A.** 62 µg/mL

**Q.** What about the MIC [24] of the same compound?
**A.** 125 µg/mL

**Q.** And the MIC [25]?
**A.** 62 µg/mL

**Q.** And the MIC [26]?
**A.** 125 µg/mL

**Q.** What about the MIC [27] of the same compound?
**A.** 62 µg/mL

**Q.** What about the MIC [28] of the same compound?
**A.** 62 µg/mL

**Q.** What about the MIC [29] of the same compound?
**A.** > 500 µg/mL

**Q.** What about the MIC [30] of the same compound?
**A.** 62 µg/mL

**Q.** What about the MIC [31] of the same compound?
**A.** 62 µg/mL
